Assay [1] is described as follows: Oral treatment of hypercholesterolemia in Sprague Dawley rats on a high cholesterol atherogenic diet (serum cholesterols). Format: in vivo. Conditions: 20 mg/kg once daily by oral gavage for five days. As to the method:
Six week-old male Sprague Dawley rats (HSD, Harlan) were housed in a fixed 12–12-hr artificial light-dark cycle, and maintained on a high cholesterol, atherogenic diet ad libitum (# C13002, Research Diets, New Jersey).
Animals were maintained on this diet throughout the course of the study.
Following six days of maintenance on the high cholesterol diet, the animals were bled from the tail vein (100–200 μL of whole blood) and serum levels of total cholesterol were measured in duplicate (Infinity Cholesterol Kit; Sigma, St. Louis, Mo.). Based on these initial measures, animals were sorted into groups with approximately the same average serum cholesterol levels. Once sorted, the animals were housed three per cage and maintained on the high cholesterol diet ad libitum.
Treatment groups (n=6/group): • 1) High cholesterol fed control (sesame oil) • 2) Compound 7 (20 mg/kg; once daily)
Compound 7 was mixed in sesame oil, and administered to animals in a volume of 3 mL/kg/dose. Compound 7 was administered by oral gavage daily for five consecutive days.
To monitor the effect of Compound 7, animals were bled from the tail vein five days after commencement of oral treatment. Serum cholesterols were measured in duplicate. The blood is kept at room temperature to allow coagulation, after which the serum is separated and assayed for total cholesterol (see FIG. 1), high density lipoprotein cholesterol (see FIG. 2) and low density lipoprotein cholesterol levels (see FIG. 3). […] Similarly, Compound 7 reduced LDL cholesterol levels compared to controls (ANOVA, Fisher's Least significant difference test, p≦0.01). Finally, Compound 7 increased HDL cholesterol levels compared to controls (ANOVA, Fisher's Least significant difference test, p<0.01).

The test system of assay [2] is MDA-MB-468 breast cancer cells. The assay is described as follows: MTT anti-cancer assay, MDA-MB-468 breast cancer cells. Format: cell-based, human. Conditions: at 10 μM, 6 days. From the text:
The anti-cancer activity of the compounds of the invention herein have been tested in in vitro assays using a microculture assay with 3-(4,5-dimethylthiazol-2-yl)-2,5-diphenyltetrazolium bromide (“MTT”) a test well known to those skilled in the art. This assay has an advantage over in vivo assay in that results are obtained within a week as opposed to several months. The assay can be carried out in 96-well microtiter plates. The MTT assay is based on the production of a dark blue formazan product by dehydrogenase in the mitochondria of live tumor cells after exposure to drug for 6 days [M. C. […] Thus, only live cells are stained and can be measured at 595 nm. […]
Treatment: Before commencing drug treatment, cells were replenished with media containing 0.5% FCS. […] As an end point, the amount of surviving cells (Live cells) was measured using a standard […] assay (MTT based), and calculated as percentage of cells treated with vehicle (DMSO) alone (% control).
MTT assay: The assay is based on the cleavage of the yellow tetrazolium salt MTT to purple formazan crystals by dehydrogenase activity in active mitochondria. […] The formazan crystals formed are solubilized and the resulting colored solution is quantified using a scanning multiwell spectrophotometer. […]

Regarding `CN(C)c1cc2c(cc1-c1ccc3cc(/C=C4\SC(=S)N(CC(=O)O)C4=O)ccc3c1)C(C)(C)CCC2(C)C` [Compound 7, {5-[6-(3-Dimethylamino-5,5,8,8-tetramethyl-5,6,7,8-tetrahydro-naphthalen-2-yl)-naphthalen-2-ylmethylene]-4-oxo-2-thioxo-thiazolidin-3-yl}-acetic acid], the “HDL cholesterol levels compared to controls” value in assay [1] (p<0.01) is listed as “increased”. Moreover, in assay [1] (p≦0.01), the “LDL cholesterol levels compared to controls” value was “reduced” and the “total serum cholesterol compared to control animals” value was “significantly reduced”. This compound also yielded a cells killed in assay [2] of approximately 80%.
